Reference: patent US4770705A, “Salts of alkyl-2-benzimidazole-carbamate and fungicidal compositions thereof suitable for paints and plaster” (Schulke & Mayr GmbH, priority 1986, dated 1988)

Assays:
Aspergillus niger = assay: Test Method A: fungus formation on treated paint/plaster discs, Aspergillus niger; format: cell-based
Method: (§1) The biological effectiveness of a product according to Example 1 was tested both in an aqueous acrylate paint and in an aqueous plaster dispersion as follows:
(§2) To 50 grams of a usual acrylic paint (for composition see Table I) and of a plaster (for composition see Table II) composition to be tested, the fungicidal compound of Example 1 was added in different concentrations. After extensive stirring, the samples were coated on a sheet of pasteboard and dried for 24 hours at room temperature and for an additional 24 hours at 40° C. These paper samples were then subjected for 72 hours to a water sprayout test whereby 1 liter of water per minute was flushed over the paper supports. After drying for 24 hours at room temperature and for 24 hours at 40° C., the test samples were irradiated for 24 hours with ultraviolet light. Test discs having a diameter of 50 mm were cut from the pasteboard and sterilized with ethylene oxide.
(§3) Sabouraud-plates were seeded with a 0.2 ml suspension of either Aspergillus niger or Alternaria containing about 10^7 germs per ml. The test discs were put onto the plates and incubated at a temperature of 25° to 27° C. for a period of 3 weeks. After a period of 1 or 2 or 3 weeks, respectively, the contamination was rated as follows:
(§4) 1=very small fungus formation (0-5% of the entire surface)
(§5) 2=weak fungus formation (5-25% of the entire surface)
(§6) 3=medium fungus formation (25 to 50% of the entire surface)
(§7) 4=strong fungus formation (50-99% of the entire surface)
(§8) 5=no inhibition of fungus formation.
(§9) A known tetradecane-sulfonic acid adduct of 2-methoxycarbonylaminobenzimidazole (BCM), CARBENDASULF (Hoechst AG, Frankfurt/Main, Germany; prepared according to Example 1 of U.S. Pat. No. 4,046,906), was used for comparison.

Alternaria = assay: Test Method A: fungus formation on treated paint/plaster discs, Alternaria; format: cell-based
Method: as §1, §2, §3, §4, §5, §6, §7, §8, §9

[1] = acrylic dispersion paint, conc. 0.01%, 1 week
[2] = acrylic dispersion paint, conc. 0.01%, 2 weeks
[3] = acrylic dispersion paint, conc. 0.01%, 3 weeks
[4] = acrylic dispersion paint, conc. 0.02%, 1 week
[5] = acrylic dispersion paint, conc. 0.02%, 2 weeks
[6] = acrylic dispersion paint, conc. 0.02%, 3 weeks
[7] = acrylic dispersion paint, conc. 0.05%, 1 week
[8] = acrylic dispersion paint, conc. 0.05%, 2 weeks
[9] = acrylic dispersion paint, conc. 0.05%, 3 weeks

SMILES: COC(=O)Nc1nc2ccccc2[nH]1 [CARBENDASULF, tetradecane-sulfonic acid adduct of 2-methoxycarbonylaminobenzimidazole (BCM)]
- contamination rating (fungus formation) (Aspergillus niger; [1]): 3 (medium fungus formation (25 to 50% of the entire surface))
- contamination rating (fungus formation) (Aspergillus niger; [2]): 3 (medium fungus formation (25 to 50% of the entire surface))
- contamination rating (fungus formation) (Aspergillus niger; [3]): 4 (strong fungus formation (50-99% of the entire surface))
- contamination rating (fungus formation) (Aspergillus niger; [4]): 2 (weak fungus formation (5-25% of the entire surface))
- contamination rating (fungus formation) (Aspergillus niger; [5]): 2 (weak fungus formation (5-25% of the entire surface))
- contamination rating (fungus formation) (Aspergillus niger; [6]): 3 (medium fungus formation (25 to 50% of the entire surface))
- contamination rating (fungus formation) (Aspergillus niger; [7]): 1 (very small fungus formation (0-5% of the entire surface))
- contamination rating (fungus formation) (Aspergillus niger; [8]): 1 (very small fungus formation (0-5% of the entire surface))
- contamination rating (fungus formation) (Aspergillus niger; [9]): 2 (weak fungus formation (5-25% of the entire surface))
- contamination rating (fungus formation) (Aspergillus niger; plaster, conc. 0.01%, 1 week): 2 (weak fungus formation (5-25% of the entire surface))
- contamination rating (fungus formation) (Aspergillus niger; plaster, conc. 0.01%, 2 weeks): 3 (medium fungus formation (25 to 50% of the entire surface))
- contamination rating (fungus formation) (Aspergillus niger; plaster, conc. 0.01%, 3 weeks): 3 (medium fungus formation (25 to 50% of the entire surface))
- contamination rating (fungus formation) (Aspergillus niger; plaster, conc. 0.02%, 1 week): 1 (very small fungus formation (0-5% of the entire surface))
- contamination rating (fungus formation) (Aspergillus niger; plaster, conc. 0.02%, 2 weeks): 2 (weak fungus formation (5-25% of the entire surface))
- contamination rating (fungus formation) (Aspergillus niger; plaster, conc. 0.02%, 3 weeks): 3 (medium fungus formation (25 to 50% of the entire surface))
- contamination rating (fungus formation) (Aspergillus niger; plaster, conc. 0.05%, 1 week): 1 (very small fungus formation (0-5% of the entire surface))
- contamination rating (fungus formation) (Aspergillus niger; plaster, conc. 0.05%, 2 weeks): 1 (very small fungus formation (0-5% of the entire surface))
- contamination rating (fungus formation) (Aspergillus niger; plaster, conc. 0.05%, 3 weeks): 2 (weak fungus formation (5-25% of the entire surface))
- contamination rating (fungus formation) (Alternaria; [1]): 3 (medium fungus formation (25 to 50% of the entire surface))
- contamination rating (fungus formation) (Alternaria; [2]): 3 (medium fungus formation (25 to 50% of the entire surface))
- contamination rating (fungus formation) (Alternaria; [3]): 4 (strong fungus formation (50-99% of the entire surface))
- contamination rating (fungus formation) (Alternaria; [4]): 2 (weak fungus formation (5-25% of the entire surface))
- contamination rating (fungus formation) (Alternaria; [5]): 2 (weak fungus formation (5-25% of the entire surface))
- contamination rating (fungus formation) (Alternaria; [6]): 3 (medium fungus formation (25 to 50% of the entire surface))
- contamination rating (fungus formation) (Alternaria; [7]): 1 (very small fungus formation (0-5% of the entire surface))
- contamination rating (fungus formation) (Alternaria; [8]): 2 (weak fungus formation (5-25% of the entire surface))
- contamination rating (fungus formation) (Alternaria; [9]): 2 (weak fungus formation (5-25% of the entire surface))
- contamination rating (fungus formation) (Alternaria; plaster, conc. 0.01%, 1 week): 2 (weak fungus formation (5-25% of the entire surface))
- contamination rating (fungus formation) (Alternaria; plaster, conc. 0.01%, 2 weeks): 3 (medium fungus formation (25 to 50% of the entire surface))
- contamination rating (fungus formation) (Alternaria; plaster, conc. 0.01%, 3 weeks): 4 (strong fungus formation (50-99% of the entire surface))
- contamination rating (fungus formation) (Alternaria; plaster, conc. 0.02%, 1 week): 1 (very small fungus formation (0-5% of the entire surface))
- contamination rating (fungus formation) (Alternaria; plaster, conc. 0.02%, 2 weeks): 2 (weak fungus formation (5-25% of the entire surface))
- contamination rating (fungus formation) (Alternaria; plaster, conc. 0.02%, 3 weeks): 4 (strong fungus formation (50-99% of the entire surface))
- contamination rating (fungus formation) (Alternaria; plaster, conc. 0.05%, 1 week): 1 (very small fungus formation (0-5% of the entire surface))
- contamination rating (fungus formation) (Alternaria; plaster, conc. 0.05%, 2 weeks): 2 (weak fungus formation (5-25% of the entire surface))
- contamination rating (fungus formation) (Alternaria; plaster, conc. 0.05%, 3 weeks): 2 (weak fungus formation (5-25% of the entire surface))
